Laboratory results taken from patent US9868763B2, “Modulators of protease activated receptors” (The University of Queensland, priority 2011, dated 2018).
Entries after “also recorded” stand apart in the source; their conditions may differ. Where two headings read alike, the source gives them in different places.

How the values were obtained:
β-tryptase = target: T1, β-tryptase (Homo sapiens, UniProt Q15661); assay: Tryptase activity assay; type: biochemical; conditions: 20 μM; substrate tosyl-Gly-Pro-Arg-pNA
T1 construct: purchased Promega
Protocol: β-tryptase (10 ng/μL, 100 μL) was incubated±PAR2 antagonist 52 (20 μM) for 15 min, to which substrate tosyl-Gly-Pro-Arg-pNA (250 μM) was added. Absorbance was measured as optical density at 405 nm (FLUOstar Optima, BMG labtech, Aust.) every 41 s for 1 h.

[1] = Pharmacokinetics, four consecutive daily oral doses; type: in vivo, Wistar rat; conditions: 10 mg/kg/day p.o. for 4 days
Protocol: Male Wistar rats were surgically implanted with a jugular vein catheter. Blood samples (heparinised) were collected from the catheter of an unanaesthetised, unrestrained rat, 5 min prior to PAR2 antagonist 52 administration (10 mg/kg p.o.) and 30 min, 1-6, 8 and 24 h post-administration. Rats not implanted with a catheter were given PAR2 antagonist 52 (10 mg/kg/day p.o.) four days consecutively (n=6). On the fifth day, plasma, cerebrospinal fluid (CSF), paw tissue and intraperitoneal adipose were collected for LCMS analysis.

[2] = test system: 2furoyl-LIGRLO-NH2-induced paw oedema; assay: PAR2 agonist-induced paw oedema; type: in vivo, Wistar rat
Protocol: The methods used are based on those previously described (Kelso, E. B., et al. Arthritis Rheum 2007, 56, 765-71; Kelso, E. B., et al. J Pharmacol Exp Ther 2006, 316, 1017-24; and Vergnolle, N. J Immunol 1999, 163, 5064-9). Male Wistar rats (n=3 per group) are used. Briefly, rats are given either 5 or 10 mg/kg of a compound of the present invention (p.o. via gavage in olive oil, approx. 500 μL, weight adjusted). Control animals receive only olive oil (500 μL p.o.). Two hours later, the PAR2 agonist 2-furoyl-LIGRLO (350 μg/paw in saline, 100 μL) is injected into the plantar surface (i.pl.) of the right paw pad using a 30 G needle. The left paw acts as a control, receiving saline only. Paw thickness and width are measured after 30 minutes and hourly using digital calipers (World Precision Instruments, USA) and swelling is calculated in area (mm^2; thickness multiplied by width) and expressed as a percentage change from baseline of each individual paw.
(§1) Based on previous methods (Kelso E B et al., J Pharmacol Exp Ther 2006, 316(3):1017-24; Suen J Y et al., Br J Pharmacol 2011, doi: 10.1111/j.1476-5381.2011.01610.x.), PAR2 antagonist 52 (10 mg/kg s.c.; n=4), ENMD-1068 (100 mg/kg s.c.; n=4) or vehicle control (DMSO s.c.; n=2) were administered to male Wistar rats. Baseline paw thickness and width were measured using digital calipers (World Precision Instruments, USA) expressed in area (mm^2; thickness×width). Fifteen minutes later, 2Furoyl-LIGLRO-NH2 (350 μg/paw in 100 μL saline) was injected into of the right hind paw pad (intraplantar, i.pl.). The left hind paw acted as a control, receiving saline only. In a separate experiment, vehicle (500 μL olive oil) versus PAR2 antagonist 52 (10 mg/kg p.o. in 500 μL olive oil) only were administered orally to two groups of rats (4 per group). Two hours later, β-tryptase (human recombinant lung, 20 μg in 100 μL saline) was injected into the right hind paw pad (vehicle in left for control) of all animals in each group. In all experiments, paw swelling was measured and expressed in area (mm^2; thickness×width) and plotted as % change from baseline of each individual paw.

PAR2 = target: T2, PAR2 (Homo sapiens, UniProt P55085); assay: PAR2 agonist inhibition (antagonism): intracellular Ca2+ release in HT29 cells; type: cell-based; parameters: endogenous in cells; host or cells: HT29 (human colorectal adenocarcinoma); conditions: other ligands; inhibiting Ca2+ release in HT29 cells; 30 min pre-incubation, agonist at EC80
T2 sequence (P55085 26-397): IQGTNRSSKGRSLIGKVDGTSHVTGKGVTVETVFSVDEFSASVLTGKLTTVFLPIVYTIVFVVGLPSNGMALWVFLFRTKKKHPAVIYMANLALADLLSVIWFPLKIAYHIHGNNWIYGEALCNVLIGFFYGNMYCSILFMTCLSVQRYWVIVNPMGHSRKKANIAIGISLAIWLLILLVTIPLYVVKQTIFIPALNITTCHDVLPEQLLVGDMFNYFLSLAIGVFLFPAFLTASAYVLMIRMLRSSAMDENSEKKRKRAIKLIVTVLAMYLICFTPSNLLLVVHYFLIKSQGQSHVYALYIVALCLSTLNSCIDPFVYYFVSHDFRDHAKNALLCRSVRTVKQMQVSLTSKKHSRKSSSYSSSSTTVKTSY
Protocol: Cells are seeded overnight in 96-well black walled, clear bottomed, plate at approximately 2×10^4 to 4×10^5 cells per well. […] The cells are then washed twice with HBSS and transferred to a Polarstar spectrofluorimeter (BMG, Durham N.C.).
The cells are prepared as outlined above then treated with the ‘putative’ antagonist 30 min prior to the addition of either trypsin or a synthetic agonist at a concentration equal to the agonists EC80.
The cells were then treated with 1 μM of the PAR2 agonist 2f-LIGRLO-NH2 (FIG. 2A, n=5) or 100 nM Trypsin (FIG. 2B, n=1). Each data point represents mean±SEM. Net changes in fluorescence were calculated as a percentage relative to the maximum response given 1 μM 2f-LIGRLO-NH2 or 100 nM Trypsin. Changes in fluorescence (% response) were plotted against logarithmic compound concentrations. The half maximal inhibitory concentration (IC50) values were derived from the dose response curve using a nonlinear regression curve in Graphpad Prism v5.

[3] = test system: β-tryptase-induced paw oedema; assay: β-tryptase-induced paw oedema; type: in vivo, Wistar rat
Protocol: as §1

T1 sequence (Q15661 31-275): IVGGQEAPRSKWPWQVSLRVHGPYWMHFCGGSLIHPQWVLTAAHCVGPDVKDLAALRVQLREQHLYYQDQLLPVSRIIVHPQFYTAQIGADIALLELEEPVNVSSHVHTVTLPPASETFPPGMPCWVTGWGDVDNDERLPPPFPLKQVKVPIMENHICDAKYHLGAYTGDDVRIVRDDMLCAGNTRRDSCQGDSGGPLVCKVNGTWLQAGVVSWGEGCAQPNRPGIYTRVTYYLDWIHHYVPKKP

## CC[C@H](C)[C@@H](NC(=O)[C@H](CC1CCCCC1)NC(=O)c1ccno1)C(=O)N1CCC2(C=Cc3ccccc32)CC1 [Compound 52]
β-tryptase
  inhibition of proteolytic activity of β-tryptase: did not inhibit; also recorded: not inhibited
[1]
  Cp after fourth dose greater than the single-dose Cp at 24 h: ~30%
[1]; Wistar, rat, cerebrospinal fluid, oral, read-out: concentration in cerebral spinal fluid (none detected, LCMS/MS detection limit)
  concentration at 5 day: < 1.8 nM
[1]; Wistar, rat, intraperitoneal adipose / plasma, oral, read-out: intraperitoneal adipose concentration as share of Cp at 24 h
  Kp at 24 h: ~0.3
[1]; Wistar, rat, intraperitoneal adipose, oral, read-out: concentration in intraperitoneal adipose
  concentration at 5 day: 150 ± 20 nM
[1]; Wistar, rat, plasma, oral, read-out: plasma concentration Cp at 24 h after the fourth dose
  concentration at 24 h: 500 ± 100 nM
[2]; recently found
  paw oedema induced by other PAR2 agonists, e.g. trypsin, SLIGRL-NH2 and GB110: inhibit paw oedema
[2]; s.c., 52 10 mg/kg, ENMD-1068 100 mg/kg, agonist 350 μg/paw
  paw oedema induced by 2furoyl-LIGRLO-NH2: reduced the paw oedema; also recorded: strongly reduce the paw oedema
PAR2
  IC50: 1000 nM
[3]; 10 mg/kg p.o. in olive oil, β-tryptase 20 μg/paw 2 h later
  paw oedema induced by β-tryptase: reduced paw oedema; also recorded: prevented the oedema; also recorded: strongly inhibited
[3]; 10 mg/kg pretreatment
  β-tryptase-induced mast cell degranulation in the extrasynovium: ameliorated; also recorded: prevented
